Assays:
Assay in all cases: relative viability (nuclei count vs DMSO), 5 days (fraction); higher = more cells survive
IU1-47 + Pictilisib = compound: CC1=CC(=C(N1C2=CC=C(C=C2)Cl)C)C(=O)CN3CCCCC3 [IU1-47] + CS(=O)(=O)N1CCN(Cc2cc3nc(-c4cccc5[nH]ncc45)nc(N4CCOCC4)c3s2)CC1 [Pictilisib] (partner 1 µM)
Summary of the method: (§1)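 Five library-drug doses in √10 steps were combined with a fixed anchor-drug dose, or a single drug was given alone, by pin tool to lung cancer cell lines in 1536-well plates the day after seeding. Nuclei were stained and counted after 5 days. Relative viability is the nuclei count in treated wells over that in vehicle wells, taken as the median of duplicate plates.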

IU1-47 + Lapatinib = compound: CC1=CC(=C(N1C2=CC=C(C=C2)Cl)C)C(=O)CN3CCCCC3 [IU1-47] + CS(=O)(=O)CCNCc1ccc(-c2ccc3ncnc(Nc4ccc(OCc5cccc(F)c5)c(Cl)c4)c3c2)o1 [Lapatinib] (partner 2 µM)
Summary of the method: as §1

FG-4592 + Lapatinib = compound: Cc1nc(C(=O)NCC(=O)O)c(O)c2ccc(Oc3ccccc3)cc12 [FG-4592] + CS(=O)(=O)CCNCc1ccc(-c2ccc3ncnc(Nc4ccc(OCc5cccc(F)c5)c(Cl)c4)c3c2)o1 [Lapatinib] (partner 2 µM)
Summary of the method: as §1

FG-4592 + Alpelisib = compound: Cc1nc(C(=O)NCC(=O)O)c(O)c2ccc(Oc3ccccc3)cc12 [FG-4592] + Cc1nc(NC(=O)N2CCC[C@H]2C(N)=O)sc1-c1ccnc(C(C)(C)C(F)(F)F)c1 [Alpelisib] (partner 2 µM)
Summary of the method: as §1

Cell Line | relative viability (IU1-47 + Pictilisib; first compound 0.08 µM) | relative viability (IU1-47 + Pictilisib; first compound 0.253 µM) | relative viability (IU1-47 + Pictilisib; first compound 0.8 µM) | relative viability (IU1-47 + Pictilisib; first compound 2.53 µM) | relative viability (IU1-47 + Pictilisib; first compound 8 µM) | relative viability (IU1-47 + Lapatinib; first compound 0.08 µM) | relative viability (IU1-47 + Lapatinib; first compound 0.253 µM) | relative viability (IU1-47 + Lapatinib; first compound 0.8 µM) | relative viability (IU1-47 + Lapatinib; first compound 2.53 µM) | relative viability (IU1-47 + Lapatinib; first compound 8 µM) | relative viability (FG-4592 + Lapatinib; first compound 0.08 µM) | relative viability (FG-4592 + Lapatinib; first compound 0.253 µM) | relative viability (FG-4592 + Lapatinib; first compound 0.8 µM) | relative viability (FG-4592 + Lapatinib; first compound 2.53 µM) | relative viability (FG-4592 + Lapatinib; first compound 8 µM) | relative viability (FG-4592 + Alpelisib; first compound 0.08 µM) | relative viability (FG-4592 + Alpelisib; first compound 0.253 µM) | relative viability (FG-4592 + Alpelisib; first compound 0.8 µM) | relative viability (FG-4592 + Alpelisib; first compound 2.53 µM) | relative viability (FG-4592 + Alpelisib; first compound 8 µM)
NCI-H2126 | 0.47 | 0.477 | 0.52 | 0.382 | 0.493 | 0.802 | 0.767 | 0.807 | 0.523 | 0.753 | 0.672 | 0.708 | 0.604 | 0.613 | 0.589 | 0.744 | 0.787 | 0.661 | 0.769 | 0.69
HOP-62 | 0.966 | 0.891 | 0.818 | 0.494 | 0.524 | 1.14 | 1.01 | 1.12 | 0.844 | 0.954 | 0.939 | 1.09 | 1.06 | 0.997 | 1.01 | 0.998 | 0.935 | 0.771 | 1.03 | 0.929
CAL-12T | 0.448 | 0.392 | 0.537 | 0.413 | 0.396 | 0.683 | 0.765 | 0.744 | 0.591 | 0.763 | 0.646 | 0.599 | 0.492 | 0.647 | 0.667 | 1.13 | 1.23 | 1.55 | 1.13 | 0.971
NCI-H520 | 0.303 | 0.297 | 0.378 | 0.331 | 0.237 | 0.774 | 0.858 | 1 | 0.879 | 0.59 | 0.754 | 0.758 | 0.828 | 0.793 | 0.721 | 0.908 | 0.972 | 0.952 | 0.93 | 0.74
NCI-H1755 | 0.433 | 0.419 | 0.503 | 0.334 | 0.318 | 1.17 | 1.1 | 1.15 | 1.11 | 0.872 | 0.935 | 1.01 | 0.945 | 1.02 | 0.984 | 0.906 | 0.888 | 0.906 | 0.945 | 0.878
NCI-H2023 | 0.22 | 0.214 | 0.274 | 0.178 | 0.182 | 0.924 | 0.872 | 0.805 | 0.334 | 0.994 | 1.03 | 0.735 | 0.407 | 0.468 | 0.598 | 0.683 | 0.569 | 0.722 | 0.631 | 0.534
NCI-H2009 | 0.876 | 0.948 | 0.815 | 0.369 | 0.882 | 0.997 | 1.03 | 1.07 | 0.43 | 1.54 | 1.02 | 0.878 | 0.888 | 0.735 | 0.924 | 1.18 | 1.06 | 1.19 | 1.15 | 1.22

— the supplement of paper PMC10307832
